Measurements as given in US8741903B2, “Organic compound for use in the treatment of hepatocellular cancer (HCC)” (priority 2010, dated 2014).
Where two headings read alike, the source gives them in different places.

Legend:
[1] = system: HUH7 human HCC xenografts; format: in vivo; conditions: 21 days, HUH7 xenograft
Method: 12 days after the injection of tumor cells the tumor volumes are 138±24 mm^3.
Each group contains 8 animals. […] The application volumes in all experiments were 10 ml/kg.

[2] = system: PLC/PFR/5 human HCC xenografts; test: PLC/PFR/5 human HCC subcutaneous xenograft in female nude mice; conditions: 24 days; for % T/C (ΔT/ΔC %, tumor volume): PLC/PFR/5 xenograft
unresectable HCC = conditions: 1st line treatment, patients with unresectable HCC; cited from earlier work
HCC = HCC patients of Asia-Pacific region; cited from earlier work
[3] = 50 mg/kg p.o. qd, statistically significant

| Structure (SMILES) | % T/C (ΔT/ΔC %, tumor volume) ([1]; 10 mg/kg p.o. qd) [%] | % T/C (ΔT/ΔC %, tumor volume) ([1]; 30 mg/kg p.o. qd, statistically significant) [%] | % T/C (ΔT/ΔC %, tumor volume) [1, 3] [%] | % T/C (ΔT/ΔC %, tumor volume) ([2]; 10 mg/kg p.o. qd) [%] | % T/C (ΔT/ΔC %, tumor volume) ([2]; 30 mg/kg p.o. qd) [%] | % T/C (ΔT/ΔC %, tumor volume) [2, 3] [%] | effect on body weight as compared to the vehicle-treated group ([2]; 10, 30 and 50 mg/kg p.o. qd) | median overall survival (unresectable HCC) [months] | median overall survival (HCC) [months] |
| --- | --- | --- | --- | --- | --- | --- | --- | --- | --- |
| CN1CCN(c2ccc3nc(-c4c(N)c5c(F)cccc5[nH]c4=O)[nH]c3c2)CC1 [Compound I, 4-amino-5-fluoro-3-[6-(4-methylpiperazin-1-yl)-1H-benzimidazol-2-yl]-1H-quinolin-2-one] | 75 | 40 | 20 | 67 | 47 | 19 | no significant effect on body weight | – | – |
| CNC(=O)c1cc(Oc2ccc(NC(=O)Nc3ccc(Cl)c(C(F)(F)F)c3)cc2)ccn1 [sorafenib] | – | – | – | – | – | – | – | 10.7 | 6.5 |
